# Results reported in publication PMC5492033, “The N-Terminal Region of the Ryanodine Receptor Affects Channel Activation” (Frontiers in Physiology, 2017).
# Read-outs that look alike come from different tables or passages of the source. No end group written: not given here.
# Legend:
# RyR2 = system: RyR2; parameters: method as in 2 sources, one per row (each row's own in cited_ref): ref Zahradnikova and Zahradnik, 1993 ||| ref Faltinova and Zahradnikova, 2013; conditions: ref Zahradnikova and Zahradnik, 1993; cited from earlier work
# RyR2 channel = target: T1, RyR2 channel (Rattus norvegicus, UniProt B0LPN4); test: Single RyR2 channel measurements in planar lipid bilayers; format: biochemical; conditions: for EC50: 50% of maximum increase of open probability; for Kd: PO at 0.5–2 μM peptide, cytosolic Ca2+ 100 nM, read-out: Kp, dissociation constant of DPcpvtN2; for POmax, maximum open probability: PO0 0.0039
# T1 construct: RyR2 channels were incorporated from a suspension of microsomal vesicles of the SR; from tissue; host or cells: rat (Wistar Han) heart ventricles, cardiac SR microsomes
# Method: All experimental protocols were approved by the State veterinary and food administration of the Slovak Republic (Ro-3820/05-221, Ro-2821/09-221) and by the ethical committee of the Centre of Biosciences. All methods were carried out in accordance with the European directive 2010/63/EU. Male rats (Wistar Han, 240–310 g, breeding station Dobra Voda, reg. No. SK CH 24011, Slovak Republic) were anesthetized with sodium pentobarbital (50 mg kg^−1 i.p.), the hearts were excised, and cardiac SR microsomes were isolated from rat heart ventricles by differential centrifugation without further purification steps, as previously described (Gaburjakova and Gaburjakova, [2006]; Faltinova and Zahradnikova, [2013]), snap frozen in liquid nitrogen and stored at −70°C.
# Preparation of bilayers, incorporation of channels and electrophysiological measurements were performed as previously described (Faltinova and Zahradnikova, [2013]). In brief, bilayer lipid membranes were formed over a 20–50 μm aperture in a polystyrene chamber. The aperture was first treated with a solution (26 mg/ml) of DOPS, DOPC and DPPC (3:5:5) in N-decane (Aldrich, USA). After evaporation of N-decane, the cis and trans compartments of the bilayer chamber were filled with the solutions (in mmol/l): cis, 250 HEPES, 50 KCl, 1 EGTA, 125 TRIS, 0.5 CaCl2, pH 7.35, [Ca^2+] = 90 nM; trans, 30 HEPES, 50 KCl, 1 Ca(OH)2, 7 Ba(OH)2, pH 7.35, and the bilayer was formed using a mixture of DOPS and DOPE (3:10; 26 mg/ml in N-decane). After formation of a bilayer, RyR2 channels were incorporated from a suspension of microsomal vesicles of the SR, added to the cis compartment. RyR identity was checked at the beginning of the experiment at high Ca^2+, when it was characteristic by its single-channel amplitude and open duration (Tencerova et al., [2012]; Faltinova and Zahradnikova, [2013]). Under the above ionic conditions, no other channels have similar properties. Detection of RyR channel was followed by perfusion to a basal Ca^2+ level. The identity of RyR was occasionally further tested at the end of the experiment by addition of 100 μM Ca^2+.
# Currents through the incorporated single RyR2 channels were measured in voltage-clamp mode at 0 mV with MultiClamp 700B amplifier (Molecular Devices, USA) with a 50 GΩ feed-back resistor. The signal was filtered by a 4-pole Bessel filter at 1 kHz and digitized using an A/D converter (Digidata 1440A, Molecular Devices, USA) at a frequency of 4 kHz. Acquisition and analysis were performed using pClamp software (Ver. 10, Molecular Devices, USA) and Origin Pro (Ver. 9, OriginLab Corporation, USA).
# Equilibrium open probabilities for different gating models (Equations 1–3) were determined from the gating schemes. Equations were derived using Mathematica (Ver. 10, Wolfram Research, USA) as previously described (Zahradnik et al., [2005]). The value of EC50 was calculated in Mathematica from Equations (1) to (3) as the ligand concentration, at which the increase of open probability reached 50% of maximum increase.
# [1] = CD spectroscopy (secondary structure); format: physicochemical
# Method: Circular dichroism (CD) measurements were performed using a Jasco J-810 spectropolarimeter (Japan). CD measurements were performed in the 198–250 nm wavelength range, which enabled estimation of the secondary structure of the peptide. The DPcpvtN2 peptide was dissolved either in 2 mM Na-phosphate (pH 7.0) or in 99.8% ethanol to a final concentration of 1.5–7 μM. CD spectra were expressed as averages of 3–5 consecutive scans. 1 mm cuvette was used for measurements. Typically, a time constant of 2 s, bandwidth of 2.0 nm, scanning speed 200 nm/min and the standard sensitivity were used. The spectra were analyzed using the web server CAPITO (Wiedemann et al., [2013]), which provides the percentage of α-helical, β-sheet and random coil in the secondary structure.
# T1 sequence (B0LPN4 whole entry): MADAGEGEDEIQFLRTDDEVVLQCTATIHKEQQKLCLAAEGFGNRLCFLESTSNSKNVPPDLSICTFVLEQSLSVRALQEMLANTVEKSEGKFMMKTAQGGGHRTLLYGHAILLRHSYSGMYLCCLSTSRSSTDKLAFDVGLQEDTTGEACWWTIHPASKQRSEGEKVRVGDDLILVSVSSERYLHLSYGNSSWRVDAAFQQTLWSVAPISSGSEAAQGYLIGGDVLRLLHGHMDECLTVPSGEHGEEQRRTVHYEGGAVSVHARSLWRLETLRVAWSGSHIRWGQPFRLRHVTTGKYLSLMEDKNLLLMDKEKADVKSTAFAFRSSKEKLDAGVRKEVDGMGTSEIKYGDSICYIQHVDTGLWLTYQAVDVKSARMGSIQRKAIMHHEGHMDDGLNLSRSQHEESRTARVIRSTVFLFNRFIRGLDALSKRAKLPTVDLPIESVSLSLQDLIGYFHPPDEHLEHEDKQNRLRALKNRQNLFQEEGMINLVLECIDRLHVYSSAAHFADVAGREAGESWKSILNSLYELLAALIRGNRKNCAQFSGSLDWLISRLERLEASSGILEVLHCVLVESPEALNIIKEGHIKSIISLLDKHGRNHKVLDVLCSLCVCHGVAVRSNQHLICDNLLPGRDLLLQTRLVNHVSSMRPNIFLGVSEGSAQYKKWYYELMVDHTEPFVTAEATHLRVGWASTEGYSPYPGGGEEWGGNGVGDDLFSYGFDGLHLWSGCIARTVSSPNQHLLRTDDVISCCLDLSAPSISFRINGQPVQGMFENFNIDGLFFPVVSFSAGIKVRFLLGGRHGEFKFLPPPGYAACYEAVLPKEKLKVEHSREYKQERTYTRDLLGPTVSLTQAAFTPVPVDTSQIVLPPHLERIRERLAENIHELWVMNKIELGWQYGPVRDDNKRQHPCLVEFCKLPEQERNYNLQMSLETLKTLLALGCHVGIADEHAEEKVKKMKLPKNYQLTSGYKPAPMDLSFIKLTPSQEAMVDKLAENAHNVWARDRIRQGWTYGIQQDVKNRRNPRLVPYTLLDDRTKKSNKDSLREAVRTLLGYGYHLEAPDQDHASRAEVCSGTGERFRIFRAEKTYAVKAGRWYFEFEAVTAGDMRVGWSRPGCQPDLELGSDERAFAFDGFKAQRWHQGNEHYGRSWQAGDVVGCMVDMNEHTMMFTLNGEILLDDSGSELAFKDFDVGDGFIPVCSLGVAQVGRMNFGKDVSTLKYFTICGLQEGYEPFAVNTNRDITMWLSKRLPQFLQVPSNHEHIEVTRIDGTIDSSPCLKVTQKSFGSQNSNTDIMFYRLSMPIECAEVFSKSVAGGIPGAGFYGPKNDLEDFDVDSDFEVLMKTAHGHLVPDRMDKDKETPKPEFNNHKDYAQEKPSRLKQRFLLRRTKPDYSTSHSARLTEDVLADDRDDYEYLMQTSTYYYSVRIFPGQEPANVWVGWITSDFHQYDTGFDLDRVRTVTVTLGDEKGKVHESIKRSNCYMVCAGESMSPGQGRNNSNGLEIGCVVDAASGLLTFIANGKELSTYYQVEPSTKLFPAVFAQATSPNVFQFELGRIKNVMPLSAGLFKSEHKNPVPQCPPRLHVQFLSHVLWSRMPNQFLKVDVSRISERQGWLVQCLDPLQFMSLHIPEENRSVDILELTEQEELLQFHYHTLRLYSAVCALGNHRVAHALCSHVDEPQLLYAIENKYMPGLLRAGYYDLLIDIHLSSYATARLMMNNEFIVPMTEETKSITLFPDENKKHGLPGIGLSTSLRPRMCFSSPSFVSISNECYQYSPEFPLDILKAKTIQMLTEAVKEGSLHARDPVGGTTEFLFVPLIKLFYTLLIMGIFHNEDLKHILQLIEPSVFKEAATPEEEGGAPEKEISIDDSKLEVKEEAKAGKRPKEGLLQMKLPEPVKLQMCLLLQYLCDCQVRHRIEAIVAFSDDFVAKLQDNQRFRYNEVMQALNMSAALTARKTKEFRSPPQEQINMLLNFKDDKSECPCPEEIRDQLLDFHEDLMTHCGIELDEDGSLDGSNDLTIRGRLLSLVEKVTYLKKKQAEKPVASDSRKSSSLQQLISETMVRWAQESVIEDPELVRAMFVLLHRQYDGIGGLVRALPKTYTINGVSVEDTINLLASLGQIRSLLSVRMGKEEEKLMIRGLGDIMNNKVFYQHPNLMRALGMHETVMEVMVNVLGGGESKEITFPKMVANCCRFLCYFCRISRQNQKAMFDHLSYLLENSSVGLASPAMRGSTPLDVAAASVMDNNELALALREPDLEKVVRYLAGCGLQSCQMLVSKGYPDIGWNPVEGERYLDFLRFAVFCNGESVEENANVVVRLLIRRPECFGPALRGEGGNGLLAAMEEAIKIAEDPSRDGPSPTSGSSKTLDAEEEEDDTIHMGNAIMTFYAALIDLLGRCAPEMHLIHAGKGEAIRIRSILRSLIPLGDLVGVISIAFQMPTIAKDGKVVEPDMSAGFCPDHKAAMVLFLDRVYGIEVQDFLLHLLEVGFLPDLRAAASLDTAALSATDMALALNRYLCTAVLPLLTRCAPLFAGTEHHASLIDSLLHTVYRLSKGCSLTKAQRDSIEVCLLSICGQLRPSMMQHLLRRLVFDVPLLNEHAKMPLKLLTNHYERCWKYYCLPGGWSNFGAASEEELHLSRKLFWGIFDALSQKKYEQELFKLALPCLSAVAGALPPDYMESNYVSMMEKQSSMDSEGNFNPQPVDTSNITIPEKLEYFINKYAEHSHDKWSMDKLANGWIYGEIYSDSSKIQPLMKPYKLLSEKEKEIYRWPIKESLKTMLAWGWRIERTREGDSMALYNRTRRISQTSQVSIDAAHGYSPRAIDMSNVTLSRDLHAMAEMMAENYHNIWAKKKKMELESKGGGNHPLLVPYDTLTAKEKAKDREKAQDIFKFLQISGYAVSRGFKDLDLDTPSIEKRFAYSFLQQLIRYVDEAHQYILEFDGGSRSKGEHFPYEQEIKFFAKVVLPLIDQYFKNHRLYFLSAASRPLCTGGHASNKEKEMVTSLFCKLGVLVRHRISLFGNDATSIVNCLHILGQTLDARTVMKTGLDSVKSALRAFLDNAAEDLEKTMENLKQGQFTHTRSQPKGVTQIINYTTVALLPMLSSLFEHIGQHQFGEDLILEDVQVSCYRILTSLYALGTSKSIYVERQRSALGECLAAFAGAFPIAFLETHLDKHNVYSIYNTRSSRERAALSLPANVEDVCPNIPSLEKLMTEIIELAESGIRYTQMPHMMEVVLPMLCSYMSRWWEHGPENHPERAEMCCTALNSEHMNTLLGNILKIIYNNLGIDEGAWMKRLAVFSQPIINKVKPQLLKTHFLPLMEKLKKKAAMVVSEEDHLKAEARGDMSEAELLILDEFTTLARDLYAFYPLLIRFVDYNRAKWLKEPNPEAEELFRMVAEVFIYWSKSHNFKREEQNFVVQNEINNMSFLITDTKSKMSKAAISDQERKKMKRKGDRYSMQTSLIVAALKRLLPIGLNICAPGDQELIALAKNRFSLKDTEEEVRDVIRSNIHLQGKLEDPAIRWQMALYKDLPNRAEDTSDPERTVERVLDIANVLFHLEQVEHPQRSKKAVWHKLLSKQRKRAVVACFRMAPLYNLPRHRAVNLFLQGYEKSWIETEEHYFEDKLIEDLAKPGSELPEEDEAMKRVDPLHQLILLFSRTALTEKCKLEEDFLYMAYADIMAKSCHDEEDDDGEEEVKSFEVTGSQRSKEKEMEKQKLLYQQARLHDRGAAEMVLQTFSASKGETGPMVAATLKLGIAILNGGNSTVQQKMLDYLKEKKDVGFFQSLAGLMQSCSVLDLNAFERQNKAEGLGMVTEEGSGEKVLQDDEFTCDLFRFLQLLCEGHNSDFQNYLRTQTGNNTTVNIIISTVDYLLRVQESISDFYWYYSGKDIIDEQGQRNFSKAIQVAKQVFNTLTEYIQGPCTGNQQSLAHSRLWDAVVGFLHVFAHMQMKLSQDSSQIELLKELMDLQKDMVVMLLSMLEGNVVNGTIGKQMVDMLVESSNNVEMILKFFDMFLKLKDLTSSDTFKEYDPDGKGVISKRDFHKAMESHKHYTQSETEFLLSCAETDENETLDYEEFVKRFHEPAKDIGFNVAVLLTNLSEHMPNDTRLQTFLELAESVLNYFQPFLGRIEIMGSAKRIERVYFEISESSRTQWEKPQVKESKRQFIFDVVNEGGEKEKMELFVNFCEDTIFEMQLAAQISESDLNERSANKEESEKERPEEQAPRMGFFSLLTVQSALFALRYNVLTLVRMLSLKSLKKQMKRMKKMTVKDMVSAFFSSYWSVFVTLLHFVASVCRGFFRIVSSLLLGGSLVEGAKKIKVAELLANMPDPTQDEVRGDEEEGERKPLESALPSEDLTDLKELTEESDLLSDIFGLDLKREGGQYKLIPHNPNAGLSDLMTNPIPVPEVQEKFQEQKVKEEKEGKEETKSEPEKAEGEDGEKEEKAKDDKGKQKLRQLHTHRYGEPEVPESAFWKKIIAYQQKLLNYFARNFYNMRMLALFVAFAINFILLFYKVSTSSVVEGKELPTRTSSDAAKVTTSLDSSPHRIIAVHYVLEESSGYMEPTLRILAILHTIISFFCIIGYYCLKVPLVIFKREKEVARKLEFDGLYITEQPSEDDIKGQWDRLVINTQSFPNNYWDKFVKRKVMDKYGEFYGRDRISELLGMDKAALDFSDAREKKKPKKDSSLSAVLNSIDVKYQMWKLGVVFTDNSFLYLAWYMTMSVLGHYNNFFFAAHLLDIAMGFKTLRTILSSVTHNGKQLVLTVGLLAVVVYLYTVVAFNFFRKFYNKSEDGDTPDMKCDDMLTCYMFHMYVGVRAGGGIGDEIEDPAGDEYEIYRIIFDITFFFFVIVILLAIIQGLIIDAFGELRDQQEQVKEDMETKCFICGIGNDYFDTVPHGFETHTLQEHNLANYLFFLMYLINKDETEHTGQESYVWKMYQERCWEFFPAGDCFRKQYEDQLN
molecule,measurement,setting,value
O=S(=O)(O)c1cc(N=C=S)ccc1C=Cc1ccc(N=C=S)cc1S(=O)(=O)O [DIDS],Effect on RyR2 activity,RyR2,all-or-none
"HEESRTARVIRSTVFLFBRFIRGLDALSK (HEESRTARVIRSTVFLFXRFIRGLDALSK; not fully specified) [DPcpvtN2, domain peptide containing amino acids 410–438 of human RyR2, the central helix of the N-terminal region]",EC50,"RyR2 channel; calculated from Equation (1), gating scheme GS1",66.4 µM
same,EC50,"RyR2 channel; calculated from Equation (2), gating scheme GS2",17.6 µM
same,EC50,"RyR2 channel; calculated from Equation (3), gating scheme GS3",0.41 µM
same,Kd,"RyR2 channel; fit by gating scheme GS1 (Equation 1: one peptide bound opens channel), 0 mV, n = 9 channels",351 ± 99 µM
same,Kd,"RyR2 channel; fit by gating scheme GS2 (Equation 2: four peptides bound open channel; fit rejected), 0 mV, n = 9 channels",3.35 ± 0.56 µM
"HEESRTARVIRSTVFLFBRFIRGLDALSK [DPcpvtN2, domain peptide containing amino acids 410–438 of human RyR2, the central helix of the N-terminal region]",Ellipticity in ethanol compared with aqueous solution,"[1]; 1.5–3 μM, ethanol vs. phosphate buffer pH 7.0",an order of magnitude higher
same,Content of α-helix,"[1]; CD spectra, 1.5–3 μM in phosphate buffer pH 7.0 or ethanol (solvent of the estimate not specified), CAPITO web server",99%
same,Effect on RyR2 open probability,"RyR2 channel; 0.5–2 μM, cis side, diastolic conditions (100 nM cytosolic Ca2+, 1 mM luminal Ca2+, 0 mV), 2-min recording, n = 9 channels",Increase in open probability and the presence of long openings could be observed at all DPcpvtN2 concentrations
same,Time to occurrence of long openings after addition,"RyR2 channel; 0.5–2 μM, diastolic conditions, 0 mV",≤ 1 min
same,Open time (tO) of long openings,"RyR2 channel; 0.5–2 μM, diastolic conditions, 0 mV, control openings tO ~ 15 ms",> 100 ms
same,"fp, allosteric factor","RyR2 channel; fit by gating scheme GS3 (Equation 3), couples DPcpvtN2 binding to channel opening",0.61 ± 0.10
same,"POmax, maximum open probability",RyR2 channel; gating scheme GS1,1
same,"POmax, maximum open probability",RyR2 channel; gating scheme GS2,1
same,"POmax, maximum open probability",RyR2 channel; gating scheme GS3,0.0275
same,Reversibility of the interaction between channel and peptide,RyR2 channel; inferred from concentration dependence of RyR open probability,readily reversible
